# Test results from paper PMC7329812 (Scientific Reports, 2020).
# Like-named read-outs stand apart in the source and are kept apart here.
# Assays:
# [1] = biological target: NaChBac (Halalkalibacterium halodurans (Bacillus halodurans), UniProt Q9KCR8); experiment: cell-based; assay type: cell-based; conditions: for inhibition at 7 µM: HEK293, read-out: inhibition of WT NaChBac peak currents
# [2] = test system: F224A NaChBac; assay type: cell-based, Bacillus halodurans; conditions: for effect on F224A NaChBac channel currents: 7 µM
# [3] = test system: F227A NaChBac; assay type: cell-based, Bacillus halodurans
# [4] = biological target: human NaV1.7 (Homo sapiens, UniProt Q15858); experiment: cell-based; assay type: cell-based
# Chain of human NaV1.7 (Q15858 whole entry): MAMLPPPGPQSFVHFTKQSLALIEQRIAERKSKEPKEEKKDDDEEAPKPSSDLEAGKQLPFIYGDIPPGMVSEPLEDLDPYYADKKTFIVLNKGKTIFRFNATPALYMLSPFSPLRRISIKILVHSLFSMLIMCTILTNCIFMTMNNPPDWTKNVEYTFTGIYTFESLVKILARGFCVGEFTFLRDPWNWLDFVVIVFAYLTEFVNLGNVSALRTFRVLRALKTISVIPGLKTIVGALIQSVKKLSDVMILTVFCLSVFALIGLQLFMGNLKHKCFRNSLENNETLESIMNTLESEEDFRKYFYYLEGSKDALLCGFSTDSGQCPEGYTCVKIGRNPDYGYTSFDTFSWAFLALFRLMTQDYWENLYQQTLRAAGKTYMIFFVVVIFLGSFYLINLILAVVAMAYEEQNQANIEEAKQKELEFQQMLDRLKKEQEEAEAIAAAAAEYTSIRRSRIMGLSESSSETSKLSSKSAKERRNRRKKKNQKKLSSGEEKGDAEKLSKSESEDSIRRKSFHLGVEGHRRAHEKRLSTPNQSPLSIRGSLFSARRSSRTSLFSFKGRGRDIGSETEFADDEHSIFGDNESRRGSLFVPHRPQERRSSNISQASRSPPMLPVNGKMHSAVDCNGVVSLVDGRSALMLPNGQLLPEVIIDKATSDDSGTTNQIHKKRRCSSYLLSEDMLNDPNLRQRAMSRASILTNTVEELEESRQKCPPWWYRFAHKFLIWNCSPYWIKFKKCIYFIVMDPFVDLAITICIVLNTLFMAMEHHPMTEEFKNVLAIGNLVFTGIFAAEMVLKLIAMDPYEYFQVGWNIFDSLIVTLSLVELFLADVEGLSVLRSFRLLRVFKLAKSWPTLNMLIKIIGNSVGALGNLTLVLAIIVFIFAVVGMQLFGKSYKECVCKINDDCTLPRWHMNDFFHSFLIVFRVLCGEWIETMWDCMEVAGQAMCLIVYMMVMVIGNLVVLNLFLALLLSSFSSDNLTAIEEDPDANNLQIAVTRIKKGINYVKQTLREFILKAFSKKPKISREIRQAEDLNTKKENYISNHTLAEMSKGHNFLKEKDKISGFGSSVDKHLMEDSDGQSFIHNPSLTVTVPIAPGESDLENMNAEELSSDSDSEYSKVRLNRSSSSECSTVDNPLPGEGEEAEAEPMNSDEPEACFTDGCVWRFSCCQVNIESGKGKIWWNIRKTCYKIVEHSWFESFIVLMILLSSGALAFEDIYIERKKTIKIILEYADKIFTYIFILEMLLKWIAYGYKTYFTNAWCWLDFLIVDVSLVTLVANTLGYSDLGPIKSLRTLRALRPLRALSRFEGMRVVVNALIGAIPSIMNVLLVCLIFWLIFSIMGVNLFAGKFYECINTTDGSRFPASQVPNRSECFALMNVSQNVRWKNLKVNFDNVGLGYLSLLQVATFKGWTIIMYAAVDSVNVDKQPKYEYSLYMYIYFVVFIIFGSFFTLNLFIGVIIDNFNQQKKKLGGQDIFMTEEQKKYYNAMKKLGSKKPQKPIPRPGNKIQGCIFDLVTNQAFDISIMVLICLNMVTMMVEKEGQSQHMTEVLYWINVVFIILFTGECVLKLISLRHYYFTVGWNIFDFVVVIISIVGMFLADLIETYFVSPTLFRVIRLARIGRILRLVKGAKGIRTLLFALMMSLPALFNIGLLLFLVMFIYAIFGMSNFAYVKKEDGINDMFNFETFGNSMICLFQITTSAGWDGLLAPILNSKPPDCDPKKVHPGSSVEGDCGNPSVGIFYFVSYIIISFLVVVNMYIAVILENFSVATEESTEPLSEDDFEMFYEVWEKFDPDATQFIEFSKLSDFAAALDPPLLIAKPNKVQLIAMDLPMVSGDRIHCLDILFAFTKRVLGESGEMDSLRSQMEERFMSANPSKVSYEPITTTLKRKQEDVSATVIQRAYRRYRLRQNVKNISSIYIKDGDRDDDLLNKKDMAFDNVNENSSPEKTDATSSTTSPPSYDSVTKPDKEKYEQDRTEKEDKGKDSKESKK
# Chain of NaChBac (Q9KCR8 1-274): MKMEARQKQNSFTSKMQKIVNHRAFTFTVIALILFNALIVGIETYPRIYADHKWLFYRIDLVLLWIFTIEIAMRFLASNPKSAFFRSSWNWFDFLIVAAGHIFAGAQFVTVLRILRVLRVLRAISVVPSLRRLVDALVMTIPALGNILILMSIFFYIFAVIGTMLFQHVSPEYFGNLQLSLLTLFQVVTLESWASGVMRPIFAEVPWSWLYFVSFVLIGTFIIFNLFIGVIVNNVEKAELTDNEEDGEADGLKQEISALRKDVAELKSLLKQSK
compound,measurement,setting,value
COc1ccc(C(=O)O[C@H]2CC[C@@]3(C)[C@@H]4CC[C@H]5[C@]6(O)C[C@H](O)[C@@]7(O)[C@@H](CN8C[C@@H](C)CC[C@H]8[C@@]7(C)O)[C@]6(O)C[C@@]53O[C@]24O)cc1OC [Veratridine],"G–V slope factor k[n], NaChBac, after compound",[1],10.3 ± 0.3
same,"Hill slope, NaChBac dose-response",[1],0.3
same,effect on NaChBac channel currents,[1],significantly blocked peak inward Na^+ current
same,"ΔV1/2 of G–V curve, WT NaChBac",[1]; 7 µM,7.7 ± 1.8 mV
same,inhibition at 7 µM,[1]; 7 µM,55.6 ± 2%
same,% of block in NaChBac,[1]; hek 293 cells,65.6±3.2%
same,IC50,[1]; read-out: IC50 for NaChBac,8.1 µM
same,effect on F224A NaChBac channel currents,[2],minimal or no block
same,inhibition of F227A NaChBac peak currents,[3]; 7 µM,65.1 ± 1.7%
same,"ΔV1/2 of G–V curve, F227A NaChBac",[3]; 7 µM,20.1 ± 2.3 mV
CCN1C[C@]2(COC)[C@H](O)C[C@H](OC)[C@@]34[C@@H]5C[C@@]6(O)[C@H](OC(=O)c7ccccc7)[C@@H]5[C@@](OC(C)=O)([C@@H]([C@H](OC)[C@H]23)[C@@H]14)[C@@H](O)[C@@H]6OC [Aconitine],"G–V slope factor k[n], NaChBac, after compound",[1],5.0 ± 0.2
same,"Hill slope, NaChBac dose-response",[1],1.0
same,IC50,[1],1.3 µM
same,effect on NaChBac channel currents,[1],significantly blocked peak inward Na^+ current
same,block of NaChBac channel,[1]; 2 µM,~ 50%
same,inhibition at 7 µM,[1]; 7 µM,~80%
same,"G–V slope factor k[n], NaV1.7, after compound",[4],6.7 ± 0.2
same,"Hill slope, NaV1.7 dose-response",[4],1.6
same,IC50,[4],7.4 µM
same,block of NaV1.7 channel,[4]; 7 µM,~ 50%
same,effect on F224A NaChBac channel currents,[2],no effect
same,effect on F227A NaChBac channel currents,[3]; 7 µM,reduced effect
Cc1ccc(C(=O)C(C)CN2CCCCC2)cc1 (stereo not shown) [Tolperisone],% of block in NaChBac,[1]; hek 293 cells,86.2±2.5%
CC[N+](CC)(CC)CC(=O)Nc1c(C)cccc1C [QX-314],% of block in NaChBac,[1]; hek 293 cells,16.2±2.6%
ProTx-II,% of block in NaChBac,[1],7.7±3.3%
same,effect on NaChBac channel currents,[1],no effect
Cc1cccc(C)c1OCC(C)N (stereo not shown) [Mexiletine],% of block in NaChBac,[1]; hek 293 cells,74.2±1.8%
NC(=O)N1c2ccccc2CC(=O)c2ccccc21 [oxcarbazepine],% of block in NaChBac,[1]; hek 293 cells,18.2±2.5%
Huwentoxin-IV,% of block in NaChBac,[1],-6.7±2.9%
C[C@H](NCc1ccc(OCc2ccccc2F)cc1)C(N)=O [Ralfinamide],% of block in NaChBac,[1]; hek 293 cells,97.7±3.0%
CCCCN1CCCCC1C(=O)Nc1c(C)cccc1C (stereo not shown) [Bupivacaine],% of block in NaChBac,[1]; hek 293 cells,46.6±2.9%
COc1ccc(CCN(C)CCCOc2nsc(-c3ccccc3)n2)cc1OC [kc12291],% of block in NaChBac,[1]; hek 293 cells,76.3±1.1%
Nc1c(Br)cc(Br)cc1CN[C@H]1CC[C@H](O)CC1 [Ambroxol],"G–V slope factor k[n], NaChBac, after compound",[1],5.7 ± 0.6
same,effect on NaChBac channel currents,[1],robust inhibition
same,% of block in NaChBac,[1]; hek 293 cells,93.6±3.8%
same,"G–V slope factor k[n], NaV1.7, after compound",[4],6.7 ± 0.2
same,effect on NaV1.7 channel currents,[4],robust inhibition
ProTx-I,% of block in NaChBac,[1],-2.0±3.0%
COc1cc(NC(=O)c2ccc(-c3ccc(Cl)cc3)o2)cc(OC)c1 [A-803467],% of block in NaChBac,[1],-6.3±4.1%
same,effect on NaChBac channel currents,[1],no effects
COc1ccccc1OCC(O)CN1CCN(CC(=O)Nc2c(C)cccc2C)CC1 (stereo not shown) [Ranolazine],% of block in NaChBac,[1]; hek 293 cells,42.5±4.3%
Cc1cccc(C)c1NC(=O)C1CCCCN1C (stereo not shown) [Mepivacaine],% of block in NaChBac,[1]; hek 293 cells,67.7±2.5%
QX-222,% of block in NaChBac,[1],15.3±2.7%
CCN(CC)CC(=O)Nc1c(C)cccc1C [Lidocaine],"G–V slope factor k[n], NaChBac, after compound",[1],4.8 ± 0.4
same,% of block in NaChBac,[1]; hek 293 cells,74.1±2.3%
same,"G–V slope factor k[n], NaV1.7, after compound",[4],7.8 ± 0.2
same,lidocaine block of F224A NaChBac channels versus WT,[2],decreased but still robust block
same,lidocaine block of F227A NaChBac channels versus WT,[3],no change in block
"NC1=N[C@H](O)[C@H]2[C@H]3O[C@]4(O)O[C@@H]([C@@H](O)[C@@]2(N1)[C@@H]4O)[C@]3(O)CO [ttx, tetrodotoxin]",% of block in NaChBac,[1],0.5±3.6%
same,effect on NaChBac channel currents,[1],did not significantly alter currents
GSMTx-4,% of block in NaChBac,[1],-5.1±3.0%
Cc1cccc(C)c1NC(=O)CC12CCCN1CCC2 [Pilsicaineide],% of block in NaChBac,[1],50.5±2.7%
